From patent US9061009B2, “Mixed lineage kinases and metabolic disorders” (University of Massachusetts, priority 2007, dated 2015)

Legend:
[1] = Established insulin resistance in ob/ob mice; assay type: in vivo; details: s.c. 0.5 or 2.5 mg/kg twice per day for two weeks, vs vehicle control
Method: The effects of the MLK inhibitor CEP-1347 to alleviate established insulin resistance in mice is determined. Ten-week old ob/ob mice (Jackson Laboratory, Bar Harbor, Me.) are obese and display hyperinsulinemia, hyperglycemia, decreased insulin sensitivity, and impaired glucose disposal. Such mice are administered CEP-1347 subcutaneously (s.c.) at a dose of 0.5 or 2.5 mg/kg or vehicle control, twice per day for two weeks. Blood glucose concentrations are measured with a DEX® glucometer (Bayer, Tarrytown, N.Y.), and plasma insulin is measured by ELISA kit for rat insulin (Crystal Chem, Downers Grove, Ill.). Following day 14 of the treatment, glucose tolerance tests are performed by i.p. administration of glucose (1.8 g/kg) and measurement of blood glucose at t=15, 30, 60, 90, and 120 minutes. Insulin tolerance tests are performed similarly except with the injection of human insulin (1 unit per kg; Lilly Research Laboratories, Indianapolis).

[2] = Development of insulin resistance in mice fed a high fat diet; assay type: in vivo; details: male mice, high fat diet 16 weeks; s.c. 0.5 or 2.5 mg/kg twice per day; vs control treatment
Method: The effects of the MLK inhibitor CEP-1347 on development of insulin resistance in mice is determined. Male mice are fed a high fat diet ad libitum (Diet F3282, Bio-Serv, Frenchtown, N.J.) or a standard diet for 16 weeks, with each group administered CEP-1347 subcutaneously (s.c.) at a dose of 0.5 or 2.5 mg/kg or vehicle control, twice per day. Body mass is recorded weekly, and blood samples are collected from the tail vain after an overnight fast after 6, 12, and 16 weeks on the diet. Blood glucose concentrations are measured with a DEX® glucometer (Bayer, Tarrytown, N.Y.), and plasma insulin is measured by ELISA kit for rat insulin (Crystal Chem, Downers Grove, Ill.). Glucose tolerance tests are performed by i.p. administration of glucose (1.8 g/kg) and measurement of blood glucose at t=15, 30, 60, 90, and 120 minutes in 16-week-old mice. Insulin tolerance tests are done similarly except with the injection of human insulin (1 unit per kg; Lilly Research Laboratories, Indianapolis). Untreated animals fed the high fat diet display hyperinsulinemia, hyperglycemia, decreased insulin sensitivity, and impaired glucose disposal.

[3] = system: diacylglycerol-responsive PKC isoforms (α, δ, and ε); test: Down-regulation of PKC isoforms in MEF by phorbol ester; assay type: cell-based, mouse; details: 1 μM, 24 hours
Method: FIG. 7C is a set of nine gels depicting expression of PKCα, PKCδ, PKCε, MLK3, phospho-MLK3 (MLK3-P), JNK, and Tubulin and in vitro kinase activity (KA) on cJun (cJun-P) of PKGζ^−/− MEF pretreated with 1 μM TPA for 24 hours and then treated with 0.5 mM palmitate for 16 hours.
To test the requirement of PKC for FFA-stimulated MLK3 and JNK activation, the effect of PKC down-regulation was examined. In initial studies, siRNA was used to down-regulate the PKC isoforms expressed in MEF (PKCα, PKCδ, PKCε, and PKCζ). Down-regulation of individual PKC isoforms caused no change in FFA-induced MLK3 or JNK activation. […] Efficient simultaneous down-regulation of multiple PKC isoforms using siRNA was not obtained. An alternative approach was therefore used to obtain MEF lacking multiple PKC isoforms. […] The effect of pan-PKC deficiency was therefore examined by treating Pkcζ^−/− MEF with TPA (FIG. 7C).

[4] = system: JNK; test: FFA-stimulated JNK activation in MEF (in vitro kinase assay with cJun / immunoblot); assay type: cell-based, mouse
Method: MEF and HEK293 cells (American Type Culture Collection) were cultured in Dulbecco's modified Eagle's medium (DMEM) supplemented with 10% fetal bovine serum (Invitrogen, Carlsbad, Calif.). […] Sodium salts of fatty acids (Sigma-Aldrich, St. Louis, Mo.) were dissolved in PBS and mixed with free fatty acid (FFA)-free BSA (Roche). Stearic acid (Sigma-Aldrich, St. Louis, Mo.) was dissolved in ethanol and added to serum-free DMEM supplemented with 2% FFA-free BSA. After 1 hour incubation in serum-free DMEM, cells were treated with 0.5 mM fatty acid/0.5% BSA for 1-16 hours at 37° C.
Protein extracts were prepared using lysis buffer [20 mM Tris™ buffer (pH 7.4), 1% Triton™ X-100 detergent, 10% glycerol, 137 mM NaCl, 2 mM EDTA, 25 mM β-glycerophosphate, 1 mM sodium orthovanadate, 1 mM phenylmethylsulfonyl fluoride, and 10 μg/mL of aprotinin and leupeptin]. Extracts (50 μg of protein) were examined by immunoblot analysis with antibodies obtained from Cell Signaling (MLK3, phosphoThr277, Ser281-MLK3, ERK, phospho-ERK, p38, phospho-p38, AKT, phosphoSer473-AKT, PKCα, PKCδ, phospho-T-loop-PKC, and phospho-JNK), Transduction Labs (PKCε), PharMingen (JNK), Sigma (α-Tubulin), and Upstate Biotechnology (IRS1, phosphoSer307-IRS1 and phospho-MKK7). JNK activity was measured in an in vitro kinase assay using [γ-^32P]ATP and cJun as substrates (Whitmarsh and Davis, 2001, Methods Enzymol., 332:319-336). […]

[5] = system: MLK3; test: MLK3 T-loop (Thr-277, Ser-281) phosphorylation immunoblot in MEF; assay type: cell-based, mouse; details: MEF pretreated with phorbol ester, then FFA
Method: Wild-type, Mkk4^−/−, Mkk7^−/−, and Mkk4^−/− Mkk7^−/− MEF (Tournier et al., 2001, Genes Dev., 15:1419-1426) and wild-type and Mlk3^−/− MEF have been previously described (Brancho et al., 2005, Mol. Cell. Biol., 25:3670-3681). Wild-type and Pkcζ^−/− MEF have also been described (Leitges et al., 2001, Mol. Cell, 8:771-780). MEF and HEK293 cells (American Type Culture Collection) were cultured in Dulbecco's modified Eagle's medium (DMEM) supplemented with 10% fetal bovine serum (Invitrogen, Carlsbad, Calif.). HEK293 cells were transfected with Lipofectamine™ transfection reagent (Invitrogen, Carlsbad, Calif.). Sodium salts of fatty acids (Sigma-Aldrich, St. Louis, Mo.) were dissolved in PBS and mixed with free fatty acid (FFA)-free BSA (Roche). Stearic acid (Sigma-Aldrich, St. Louis, Mo.) was dissolved in ethanol and added to serum-free DMEM supplemented with 2% FFA-free BSA. […]
Protein extracts were prepared using lysis buffer [20 mM Tris™ buffer (pH 7.4), 1% Triton™ X-100 detergent, 10% glycerol, 137 mM NaCl, 2 mM EDTA, 25 mM β-glycerophosphate, 1 mM sodium orthovanadate, 1 mM phenylmethylsulfonyl fluoride, and 10 μg/mL of aprotinin and leupeptin]. […] JNK activity was measured in an in vitro kinase assay using [γ-^32P]ATP and cJun as substrates (Whitmarsh and Davis, 2001, Methods Enzymol., 332:319-336). […]

Q: Which results are given for CCSCc1ccc2c(c1)c1c3c(c4c5cc(CSCC)ccc5n5c4c1n2[C@H]1C[C@](O)(C(=O)OC)[C@]5(C)O1)CNC3=O [CEP-1347]?
A: hyperinsulinemia and hyperglycemia [1]: decreases hyperinsulinemia and hyperglycemia; insulin and glucose tolerance [1]: at least partially restores insulin and glucose tolerance; hyperinsulinemia, hyperglycemia, decreased insulin sensitivity, impaired glucose disposal [2]: decreases these symptoms

Q: For CCCCCCCCCCCCCC(=O)O[C@@H]1[C@@H](C)[C@@]2(O)[C@@H](C=C(CO)C[C@]3(O)C(=O)C(C)=C[C@@H]23)[C@@H]2C(C)(C)[C@]12OC(C)=O [TPA, Phorbol-12-Myristate-13-Acetate], which “down-regulation of PKC isoforms” value [3] is on record?
A: caused down-regulation of diacylglycerol-responsive PKC isoforms (α, δ, and ε)

Q: What about the “effect on FFA-induced JNK activation” value ([4]; MEF pretreated with phorbol ester, then FFA) of the same molecule?
A: did not affect

Q: What about the “effect on FFA-induced MLK3 activation” value [5] of the same molecule?
A: did not affect

Q: Which JNK activation ([4]; MEF, 0.5 mM FFA, 16 hours) does the source give for CCCCCCCCCCCCCCCCCC(=O)O [stearate, stearic acid] here?
A: resulted in JNK activation
